The values that follow come from US9045470B2, “Compounds and compositions as TLR activity modulators” (IRM LLC, priority 2009, dated 2015).

The target of one series is T1, human TLR7 (Homo sapiens, UniProt Q9NYK1).
T1 construct: expressed in transfected cells; host or cells: HEK 293 (human embryonic kidney 293), stably transfected; co-transfected pNifty-Luciferase reporter
T1 sequence (Q9NYK1 27-1049): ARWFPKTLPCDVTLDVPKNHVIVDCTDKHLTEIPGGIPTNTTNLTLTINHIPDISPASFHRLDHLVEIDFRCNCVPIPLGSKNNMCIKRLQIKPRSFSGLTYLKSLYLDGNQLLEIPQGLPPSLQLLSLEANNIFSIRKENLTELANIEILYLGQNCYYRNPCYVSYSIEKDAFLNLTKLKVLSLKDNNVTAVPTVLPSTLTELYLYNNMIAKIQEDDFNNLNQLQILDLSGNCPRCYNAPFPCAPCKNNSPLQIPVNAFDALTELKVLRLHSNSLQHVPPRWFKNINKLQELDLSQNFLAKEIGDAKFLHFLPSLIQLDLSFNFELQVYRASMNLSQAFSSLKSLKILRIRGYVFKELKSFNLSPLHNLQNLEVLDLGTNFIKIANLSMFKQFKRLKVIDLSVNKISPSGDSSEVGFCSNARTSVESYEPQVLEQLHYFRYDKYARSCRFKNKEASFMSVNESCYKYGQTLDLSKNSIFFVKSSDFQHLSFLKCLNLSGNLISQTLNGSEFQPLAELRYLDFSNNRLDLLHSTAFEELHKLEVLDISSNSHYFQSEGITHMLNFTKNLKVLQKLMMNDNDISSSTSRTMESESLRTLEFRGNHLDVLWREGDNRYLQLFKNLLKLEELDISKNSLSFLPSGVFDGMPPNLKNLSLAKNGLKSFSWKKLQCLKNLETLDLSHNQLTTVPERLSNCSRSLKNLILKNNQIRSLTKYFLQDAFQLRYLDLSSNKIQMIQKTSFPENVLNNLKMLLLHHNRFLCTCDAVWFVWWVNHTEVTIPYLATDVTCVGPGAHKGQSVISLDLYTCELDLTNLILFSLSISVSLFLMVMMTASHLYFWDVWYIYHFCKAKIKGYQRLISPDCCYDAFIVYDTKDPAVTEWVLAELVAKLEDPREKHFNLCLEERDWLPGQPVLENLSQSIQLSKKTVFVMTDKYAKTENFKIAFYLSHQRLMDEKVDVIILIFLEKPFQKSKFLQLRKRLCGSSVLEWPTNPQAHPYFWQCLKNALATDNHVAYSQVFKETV
The series is described as follows: Reporter gene assay: HEK293 cells stably transfected with human TLR7 and NF-kB-driven luciferase reporter. The class given is cell-based. The procedure: Human embryonic kidney 293 (HEK 293) cells were stably transfected with human TLR7 and an NF-kB-driven luciferase reporter vector (pNifty-Luciferase). As a control assay, normal Hek293 transfected with pNifty-Luc were used. Cells were cultured in DMEM supplemented with 2 mM L-glutamine, 10% heart inactivated FBS, 1% penicillin and streptomycin, 2 μg/ml puromycin (InvivoGen #ant-pr-5) and 5 μg/ml of blasticidin (Invitrogen #46-1120). Bright-Glo™ Luciferase assay buffer and substrate were supplied by Promega #E263B and #E264B (assay substrate and buffer respectively). 384 well clear-bottom plates were supplied by Greiner bio-one (#789163-G) and were custom bar-coded plates.
Cells were plated at 25,000 cells/well in 384-well plates in a final volume of 50 μl of media. Cells were allowed to adhere to the plates after overnight (18 hours) culture at 37° C. and 5% CO2. Serially diluted experimental and positive control compounds were then dispensed to each well and incubated for 7 hours at 37° C. and 5% CO2. Cells stimulated with DMSO alone also serve as negative controls. After the incubation, 30 μl of the pre-mix assay buffer and substrate buffer were added to each well according to manufacturer's instructions.
The EC50 value in those experiments is given as that concentration of the test compound in question that provoke a response halfway between the baseline and maximum responses. […] Such EC50 values are obtained relative to the activity of resiquimod set to 100%.
In general terms: Reporter assays use an easily measured gene product as a stand-in for the process of interest.

Series [1] in a line: Binding to aluminum hydroxide adjuvant, HPLC of formulation supernatant. Type of series: physicochemical. To be noted: aluminum hydroxide 2 mg/mL, room temperature and 37° C., 1, 5 and 24 hours. The method, then:
The binding of the compounds of Formula (I) provided herein to aluminum-containing adjuvants at pH 9 and pH 6.5 was evaluated using HPLC to monitor the presence of the compound of Formula (I) in the supernatant.
(§1) Compound 1 (0.5 mg/mL) was dissolved in 10 mM NaOH and added to aluminum hydroxide adjuvant (2 mg/mL) resulting in a 100 μg/dose formulation. The supernatant was evaluated with HPLC using a ballistic gradient (from 10% CH3CN-0.1% TFA to 100% CH3CN-0.1% TFA in 2.5 minutes) on a C18 ([…]×4.6 mm) ACE column at 45° C. To evaluate the effect of supernatant temperature and incubation time on binding, the supernatant was evaluated at a supernatant temperature of room temperature and at 37° C. after 1 hour, 5 hours and 24 hours. A control without aluminum hydroxide was also evaluated.
(§2) Compound 5 (1 mg/mL) was dissolved in 10 mM NaOH and added to aluminum hydroxide adjuvant (2 mg/mL) resulting in a 100 μg/dose formulation. The supernatant was evaluated with HPLC using a ballistic gradient (from 10% CH3CN-0.1% TFA to 100% CH3CN-0.1% TFA in 2.5 minutes) on a C18 ([…]×4.6 mm) ACE column at 45° C. To evaluate the effect of supernatant temperature and incubation time on binding, the supernatant was evaluated at a supernatant temperature of room temperature and at 37° C. after 1 hour, 5 hours and 24 hours. A control without aluminum hydroxide was also evaluated.
as §1, with “formulation. The pH of the solution was adjusted to pH 6.5 using HCl.” for “formulation.”
as §2, with “histidine buffer (1 mg/mL)” for “NaOH”

A short description of series [2]: Desorption from aluminum hydroxide with KH2PO4 and n-butanol extraction, HPLC. The class given is physicochemical. The procedure: An organic solvent extraction method was used to evaluate whether compound 1 was covalently bound to aluminum hydroxide. The formulation was prepared as follows: 2 mg/ml aluminum hydroxide, 100 μg/dose compound 1, 10 mM histidine buffer) and the pH was adjusted to 9. A control formulation without aluminum hydroxide was also prepared.
One ml of the formulation containing Alum was mixed with 1 ml of KH2PO4 1M pH 9 (0.5M final conc, pH 9) and was left in gentle agitation overnight at 37° C. to allow desorption of compound 1 (compound 5) from the aluminum hydroxide via ligand exchange with the phosphate anions. Organic extraction was then performed: 1 ml of each sample was mixed with 1 ml of n-butanol and vortexed. After the formation of 2 phases, the upper phase (butanol) was recovered, dried with N2 and resuspended in MeOH/10 mM NaOH. HPLC analysis was run both for the formulation supernatants and for the butanol extracted samples (C18 column; 0-100% B in 2 min; A=0.1% TFA in H2O; B=0.1% TFA in ACN).
The adsorption of compound 16 and compound 18 to aluminum hydroxide was also evaluated using the alum formulation described above for compound 1. […] In addition, SDS PAGE analysis of antigen binding in the presence of compound 16 or compound 18 was carried out as described above.

A short description of series [3]: Binding to alum in 10 mM histidine buffer, LC-MS/MS of supernatant. As to conditions: 10 mM histidine buffer pH 6.8; final compound 0.1 mg/mL; 37° C. for 5 hours; 100% minus % unbound. The class given is physicochemical.
Procedure: The resulting solution was diluted 10-fold with blank histidine buffer to a final compound concentration of 0.1 mg/mL. Diluted solutions were incubated at 37° C. for 5 hours. The samples were centrifuged at 14,000 rpm for 10 minutes to pellet the insoluble. The supernatant (along with an internal standard) was then evaluated by LC-MS/MS using a ballistic gradient (from 5% CH3CN-0.5% formic acid to 95% CH3CN-1.0% formic acid in 3.5 minutes) on a Waters Atlantis dC18 (50 mm×2.1 mm) column at room temperature against a calibration curve prepared at known compound concentrations ranging from 0.005 to 50 μM. The concentration in the supernatant was calculated as % unbound to alum compared to control; the % bound to alum was calculated as 100% minus % unbound.

The compound `Cc1ccc2c(c1)nc(N)c1ncc(CCc3ccc(OCCCC(F)(F)P(=O)(O)O)cc3C)cc12` [Compound 5, 4-(4-(2-(5-amino-8-methylbenzo[f][1,7]naphthyridin-2-yl)ethyl)-3-methylphenoxy)-1,1-difluorobutylphosphonic acid] returned an EC50 on human TLR7 of 308 nM. For the same compound, the “presence of compound in supernatant when aluminum hydroxide included in formulation (HPLC)” value in series [1] (pH 6.7, 10 mM histidine buffer) is listed as “not present in the supernatant”; in series [1] (pH 9, dissolved in 10 mM NaOH), “not present in the supernatant”.

Compound `Cc1ccc2c(c1)nc(N)c1ncc(CCc3ccc(OCCCP(=O)(O)O)cc3C)cc12` [Compound 1, 3-(4-(2-(5-amino-8-methylbenzo[f][1,7]naphthyridin-2-yl)ethyl)-3-methylphenoxy)propylphosphonic acid] returned an EC50 at human TLR7 of 226 nM. Also, the “presence of compound in supernatant when aluminum hydroxide included in formulation (HPLC)” value in series [1] (pH 6.5 (adjusted with HCl)) is “not present in the supernatant”; in series [1] (pH 9, dissolved in 10 mM NaOH), “not present in the supernatant”. In addition, the “quantity of compound in supernatant of formulation treated with KH2PO4 (desorption by phosphate anions)” value in series [2] (0.5M KH2PO4 pH 9, overnight 37° C.) is “Increased quantities”. In series [2] (alum formulation treated with 0.5M KH2PO4, n-butanol extracted sample), the “Concentration (mg/ml), phosphate/extract” value stood at 0.119 ± 0.001 mg/mL. In series [2] (alum formulation treated with 0.5M KH2PO4 pH 9 overnight at 37° C., supernatant), the “Concentration (mg/ml), phosphate supernatent” value amounted to 0.059 ± 0.001 mg/mL. Besides, in series [2] (alum formulation, n-butanol extracted sample), the “Concentration (mg/ml), extaract” value was 0.027 ± 0.001 mg/mL. In addition, the “Concentration (mg/ml), control/extract” value in series [2] (control formulation without aluminum hydroxide, n-butanol extracted sample) came out at 0.217 ± 0.001 mg/mL. Moreover, the “Concentration (mg/ml), supernatant control” value in series [2] (control formulation without aluminum hydroxide, supernatant) was 0.329 ± 0.001 mg/mL. The “Concentration (mg/ml), supernatent” value in series [2] (formulation with 2 mg/ml aluminum hydroxide, 10 mM histidine buffer pH 9, supernatant) worked out at 0.005 ± 0.001 mg/mL.

On human TLR7, `Cc1cc(OCCCC(F)(F)P(=O)(O)O)ccc1CCc1cnc2c(N)nc3cc(CCC(=O)O)ccc3c2c1` [Compound 16, 3-(5-amino-2-(4-(4,4-difluoro-4-phosphonobutoxy)-2-methylphenethyl)benzo[f][1,7]naphthyridin-8-yl)propanoic acid] yielded a concentration for a half-maximal effect (EC50) of 137 nM. Further, in series [2] (alum formulation as described for compound 1), the “compound in supernatant after addition of aluminum hydroxide (HPLC)” value is recorded as “no compound was observed in the supernatant”. The “% Alum bound in Histidine buffer” value in series [3] stood at 94.5%.

Regarding `Cc1cc(OCCOCCOCCC(F)(F)P(=O)(O)O)ccc1CCc1cnc2c(N)nc3cc(CCC(=O)O)ccc3c2c1` [Compound 17, 3-(5-amino-2-(4-(2-(2-(3,3-difluoro-3-phosphonopropoxy)ethoxy)ethoxy)-2-methylphenethyl)benzo[f][1,7]naphthyridin-8-yl)propanoic acid], the EC50 at human TLR7 worked out at 5 nM. Also, the “% Alum bound in Histidine buffer” value in series [3] was determined as 96.2%.

Compound `Cc1cc(OCCOCCOCCP(=O)(O)O)ccc1CCc1cnc2c(N)nc3cc(CCC(=O)O)ccc3c2c1` [Compound 20, 3-(5-amino-2-(2-methyl-4-(2-(2-(2-phosphonoethoxy)ethoxy)ethoxy)phenethyl)benzo[f][1,7]naphthyridin-8-yl)propanoic acid] yielded an EC50 on human TLR7 of 384 nM. The “% Alum bound in Histidine buffer” value in series [3] is listed as 97.0%.

As usually defined, the EC50 is the concentration that produces a half-maximal response. Higher therefore signals a need for much substance.
